Test results: patent publication US20170246146A1, “POLYPHENOL FOR WOUND HEALING” (IC-MedTech Corporation, priority 2012, published 2017)

Key:
[1] = test system: VEGF; experiment: VEGF production (VEGF Quantiglo Immunoassay); assay type: cell-based, Human; settings: for VEGF: keratinocytes
Procedure: Human adult keratinocytes were plated into a 6 well plate and allowed to grow to >80% confluency. The back of a rubber scraper was then used to scratch each plate, creating a uniform linear wound across each well. Cells were then rinsed with media to remove non-adherent cells and drugs at indicated concentrations were added. Media aliquots were taken at 1, 3, 6, or 16 hrs and spun down at 6,250 rpm for 10 minutes. Supernatants were then collected and stored at −4 ° C. until assayed using the VEGF Quantiglo Immunoassay (Research and Development Systems) according to kit instructions.

[2] = test system: Human foreskin fibroblasts; experiment: Scratch wound assay, fibroblasts; assay type: cell-based
Procedure: (§1) A scratch wound assay was employed to evaluate the in vitro wound healing capacity of APATONE® and TOLECINE®. For the scratch-wound assay, cells were seeded on 6-well culture plates. At 80% cell confluence, a scratch-wound was produced using a sterile pipette tip and the size of the gap was measured and set to 100%. The cells were treated with test agents at various concentrations and the closing of the scratch-wound was measured at 24, 48, and 72 hrs. This experiment was performed three times for each cell line. Human foreskin fibroblasts were employed to optimize the assay because of the involvement of fibroblasts in wound healing. Human skin fibroblasts were scratched and then sham treated or treated with VC alone or APATONE® for 24 hrs.

[3] = test system: interleukin-1 alpha (IL-1α); experiment: IL-1α ELISA in EPIDERMFT assay medium; assay type: cell-based, Human; settings: 24 hr exposure; negative control 8.156 pg/mL
Procedure: (§2) Enzyme-linked immunosorbent assay (ELISA) kits were used to test for the presence of the cytokine interleukin-1 alpha (IL-1α) and the inflammatory mediator prostaglandin E2 (PGE-2) in the assay medium. Approximately 1 mL of the media from beneath the tissue millicells were sampled at the end of dosing and incubation. The assays were conducted according to the manufacturer's directions on both undiluted samples and samples diluted to 10% in order to obtain the detectable protein range of the ELISA kits. Protein standards were run with both ELISAs in order to derive standard curves.

[4] = test system: prostaglandin E2 (PGE-2); experiment: PGE-2 ELISA in EPIDERMFT assay medium; assay type: cell-based, Human; settings: 24 hr exposure; negative control 6.1 ng/mL
Procedure: as §2

[5] = test system: MatTek EPIDERMFT™ (Full Thickness skin) tissue; experiment: MatTek EPIDERM MTT Viability Assay (dermal irritation potential); assay type: cell-based, Human
Procedure: The MatTek EPIDERM™ MTT Viability Assay was employed as a quantitative method for assessing the dermal irritation potential of TOLECINE®. MatTek EPIDERMFT™ (Full Thickness skin) tissue samples were treated with TOLECINE® (neat) or a positive control (1% Triton X-100) for various exposure times ranging from 1 to 24 hrs. Negative controls (undosed tissues) were tested for 8 hrs only. Following treatment, the viability of the tissues were determined using MTT uptake and conversion and the absorbance of each sample was measured at 540 nm using a reference wavelength of 690 nm. The viability was then expressed as a percent of control values. The mean percent of each time point was used to calculate an ET50, which represented the time at which the EPIDERMFT™ tissue viability was reduced 50% compared to the control tissue.

[6] = test system: Keratinocytes; experiment: Scratch wound assay, keratinocytes; assay type: cell-based; settings: compared with fibroblast data
Procedure: as §1
Keratinocytes were grown to 90% confluence and then scratched to generate a wound. Cells were then treated with sham (fresh media) or a single dose of APATONE® at 75 μM sodium ascorbate and 0.75 μM menadione sodium bisulfate. […] Without being limited by any theory, the decreased closure of APATONE® during the second 24 hrs probably reflects metabolism of the vitamins by the keratinocytes.

[7] = test system: intracellular peroxides; experiment: Pro-oxidant production (DCFH-DA fluorescence); assay type: cell-based
Procedure: Production of intracellular peroxides was monitored spectrofluorometrically using dichlorofluorescein diacetate (DCFH-DA) as a fluorescent dye. Cell suspensions were treated with DCFH-DA at a final concentration of 100 μM in the medium. Oxidation of DCFH by peroxides yields dichlorofluorescein (DCF). Fluorescence was monitored at the excitation and emission wavelengths of 485 and 530 nm, respectively, using a fluorescence plate reader (50 cycles per 20 s at 37° C.) (Biotek Synergy HT®). Hydrogen peroxide (μM) was determined based on fluorescence generated from a hydrogen peroxide standard curve.
Apatone production of hydrogen peroxide was determined based a standard curve. Serial dilutions of Apatone (1000/10, 500/5, 250/2.5, 125/1.25, and 62.5/0.625) were then added to cells pre-treated with DCF-DA and read over a series of time points (1, 3, 5, and 24 hrs).

[8] = test system: full thickness excision wounds; experiment: Wound healing studies in mice; assay type: in vivo, Balbc/J male mice; settings: topical, days 0-5, by day 5, glycerin 27%
Procedure: Sixty, 5-6 week old Balbc/J male mice were ear notched for identification and housed in individually and positively ventilated polycarbonate cages with HEPA filtered air. Bed-o-cob corn cob bedding were used and cages were changed every two weeks. The animal room was lighted entirely with artificial fluorescent lighting, with a controlled 12 hr light/dark cycle. The normal temperature and relative humidity ranges in the animal rooms were 22±4° C. and 50±15%, respectively. The animal rooms were set to have 15 air exchanges per hour. Filtered tap water, acidified to a pH of 2.8 to 3.1, and rodent chow were provided ad libitum.
Following a 5 to 7 days acclimation, mice were randomized by body weight into 6 cohorts of 10 mice each. On study day 0 (D0), mice were anesthetized and two full thickness excision wounds (˜6 mm) were made on the dorsum (backs) of mice. One of the wounds was covered using a semi-occlusive polyurethane dressing (TEGADERM™). […]
Wound measurements were made on days 5, 7, 9, and 11. […] Traces were captured by scan and analyzed by a computer imaging software. […]
After being wounded, the mice had saddles applied around the wounds to prevent cross contamination and wound closure due to constriction. […] At day 5, test agents were removed and changes in wound area were measured in an effort to gauge the persistence of the compounds in the wound site.

With `Oc1ccc(C=Cc2cc(O)cc(O)c2)cc1` [resveratrol, reference compound] the “VEGF production compared with TOLECINE®” value ([1]; 20 μM each) was “less than the VEGF production by TOLECINE® at 20 μM”, the “VEGF” value ([1]; resveratrol 20 μM, 1 hr, sham 12.4) was 139.0 pg/mL and the “VEGF” value ([1]; resveratrol 20 μM, 3 hrs, sham 13.2) was 166.7 pg/mL. The “VEGF” value ([1]; resveratrol 20 μM, 6 hrs, sham 42.0) was 196 pg/mL, the “VEGF” value ([1]; resveratrol 20 μM, 6 hrs, sham 42.0, listed as RES) was 196.0 pg/mL and the “VEGF” value ([1]; resveratrol 20 μM, 16 hrs, sham 67.4) was 274 pg/mL. For the same compound, the “VEGF” value ([1]; resveratrol 20 μM, 16 hrs, sham 67.4, listed as RES) was 274.1 pg/mL.

In the case of `O=C1O[C@H]([C@@H](O)CO)C(O)=C1O` [VC, L-ascorbic acid, reference compound], the “width of the scratch” value ([2]; 2,000 μM VC, at 24 hrs, 28.0 μm immediately after scratching (sham 15.8 to 8.3 μm)) was 16.9 μm, the “activity in scratch wound assay” value ([2]; VC alone at 75 μM) was “not active” and the wound closed ([2]; fibroblasts, after 24 hrs, FIG. 1 (VC 2000 μM), sham about 57%) was “about 43%”.

With “Triton X-100 [positive control, reference compound]” the IL-1α levels [3] was 168 pg/mL, the PGE-2 levels [4] was 1211 ng/mL and the “ET50 (time at which tissue viability was reduced 50% compared to control)” value ([5]; TOLECINE® neat, positive control 1% Triton X-100, exposure 1 to 24 hrs, MTT) was 10.4 h.

With `Oc1ccc(C#Cc2ccc(O)cc2)cc1` [TOLECINE®, 4,4′-(ethyne-1,2-diyl)diphenol] the “wound closure in keratinocytes” value [6] was “closely approximated that observed with fibroblasts”, the “hydrogen peroxide production, dose dependence” value ([7]; FIGS. 4-6) was “dose dependent” and the “hydrogen peroxide production over time” value ([7]; keratinocytes exposed for 5 hrs or more) was “continued to increase”. For the same compound, the “VEGF” value ([1]; 10 μM, 1 hr, sham 12.4) was 32.6 pg/mL, the “VEGF” value ([1]; 10 μM, 3 hrs, sham 13.2) was 29.4 pg/mL and the “VEGF” value ([1]; 10 μM, 6 hrs, sham 42.0) was 120 pg/mL. For the same compound, the “VEGF” value ([1]; 10 μM, 6 hrs, sham 42.0, listed as TOL) was 120.7 pg/mL, the “VEGF” value ([1]; 10 μM, 16 hrs, sham 67.4) was 237 pg/mL and the “VEGF” value ([1]; 10 μM, 16 hrs, sham 67.4, listed as TOL) was 237.2 pg/mL. The “VEGF production, early time course” value ([1]; 10 μM, first 3 hrs) was “lag in VEGF production”, the “VEGF” value ([1]; 20 μM, 1 hr, sham 12.4) was 121.2 pg/mL and the “VEGF” value ([1]; 20 μM, 3 hrs, sham 13.2) was 148.7 pg/mL. For the same compound, the “VEGF” value ([1]; 20 μM, 6 hrs, sham 42.0) was 225 pg/mL, the “VEGF” value ([1]; 20 μM, 6 hrs, sham 42.0, listed as TOL) was 225.9 pg/mL and the “VEGF” value ([1]; 20 μM, 16 hrs, sham 67.4) was 457 pg/mL. For the same compound, the “VEGF” value ([1]; 20 μM, 16 hrs, sham 67.4, listed as TOL) was 457.2 pg/mL, the wound closure ([2]; 2.5 μM, 24 hrs, sham 30%) was 85% and the wound closure ([2]; 2.5 μM, 48 hrs, sham 80%) was 100%. It also gave a wound closure ([2]; 5 μM, 24 hrs, sham 30%) of 85%, a wound closure ([2]; 5 μM, 48 hrs, sham 80%) of 100% and a wound closure ([2]; 10 μM, 24 hrs, sham 30%) of 100%. For the same compound, the PGE-2 levels [4] was 9.5 ng/mL, the “ET50 (time at which tissue viability was reduced 50% compared to control)” value ([5]; human) was “greater than 24 hrs” and the wound closure ([8]; 2.5% in glycerin) was 93%. For the same compound, the wound closure ([8]; 5% TOLECINE® in glycerin) was 87%.
